Reference: ChEMBL document CHEMBL4610094, “Prenylated Phenolic Compounds from the Aerial Parts of Glycyrrhiza uralensis as PTP1B and α-Glucosidase Inhibitors” (J Nat Prod, 2020)
Active and inactive are the calls of the source. The rule behind the calls is not given here.

Columns and labels:
[1] = species: Homo sapiens; assay: Inhibition of alpha-Glucosidase (unknown origin) at 10 uM using pNPG as substrate incubated for 30 mins relative to control
[2] = biological target: T1, Tyrosine-protein phosphatase non-receptor type 1 (Homo sapiens) (UniProt P18031); assay: Inhibition of recombinant human PTP1B (1 to 321 residues) expressed in Escherichia coli at 10 uM using p-nitrophenyl phosphate as substrate incubated for 30 mins relative to control
T1 sequence (whole entry): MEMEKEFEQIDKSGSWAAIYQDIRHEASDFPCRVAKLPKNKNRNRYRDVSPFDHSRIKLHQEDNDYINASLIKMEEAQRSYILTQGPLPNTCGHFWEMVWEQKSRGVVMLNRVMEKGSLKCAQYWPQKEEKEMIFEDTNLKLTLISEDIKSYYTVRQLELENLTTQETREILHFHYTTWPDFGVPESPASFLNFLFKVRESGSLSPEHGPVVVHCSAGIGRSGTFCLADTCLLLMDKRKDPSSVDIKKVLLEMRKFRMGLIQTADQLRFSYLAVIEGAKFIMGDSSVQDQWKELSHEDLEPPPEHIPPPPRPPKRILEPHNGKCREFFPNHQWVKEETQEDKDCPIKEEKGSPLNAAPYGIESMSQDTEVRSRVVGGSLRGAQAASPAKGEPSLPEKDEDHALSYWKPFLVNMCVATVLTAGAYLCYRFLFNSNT

[3] = biological target: T2, Tyrosine-protein phosphatase non-receptor type 1 (Homo sapiens, UniProt P18031); assay: Inhibition of recombinant human PTP1B (1 to 321 residues) expressed in Escherichia coli using p-nitrophenyl phosphate as substrate incubated for 30 mins
T2 sequence (P18031 whole entry): T1 sequence (whole entry)

[4] = Cytotoxicity against human insulin resistant HepG2 cells assessed as cell viability at 10 uM by CCK8 assay relative to control; type: cell-based; settings: read-out: Activity
[5] = tested on: HepG2; assay: Induction of glucose uptake in human insulin resistant HepG2 cells at 10 uM incubated for 24 hrs by GOD-POD method relative to control; type: functional
[6] = Inhibition of alpha-Glucosidase (unknown origin) using pNPG as substrate incubated for 30 mins; set-up: species or system Homo sapiens
[7] = tested on: HepG2; assay: Induction of glucose uptake in human insulin resistant HepG2 cells at 500 uM incubated for 24 hrs by GOD-POD method relative to control; type: functional, cell-based

Row | inhibition [1] | inhibition [2] | IC50 [3] | IC50 [6] | SMILES | viability at 10 µM [4] | Activity [5] | Activity [7]
1 | > 40% | > 60% | 2.1 µM |  | CC(C)=CCc1cc([C@@H]2CC(=O)c3c(O)cc(O)c(CC=C(C)C)c3O2)ccc1O [LESPEDEZAFLAVANONE B] | 80 to 110% |  | 
2 | > 40% | > 60% |  |  | O=c1c(-c2ccc(O)cc2)coc2cc(O)ccc12 [DAIDZEIN] | 80 to 110% | >80% | 
3 |  |  | 2.3 µM | 16.3 µM | CC(C)=CCc1c(O)c(CC=C(C)C)c2occ(-c3ccc(O)cc3)c(=O)c2c1O |  |  | 
4 | > 40% | > 60% |  |  | CC1(C)C=Cc2cc(-c3coc4cc(O)cc(O)c4c3=O)cc(O)c2O1 | 80 to 110% |  | 
5 | > 40% |  |  |  | CC(C)=CCc1cc([C@@H]2COc3cc(O)c(CC=C(C)C)c(O)c3C2=O)ccc1O |  |  | 
6 | 61.2% | > 60% |  |  | COc1c(CC=C(C)C)c(O)cc2oc(-c3ccc(O)cc3O)cc12 [LICOCOUMARONE] | 80 to 110% | >80% | 
7 |  |  | 7 µM |  | CC(C)=CCc1c(O)ccc(-c2coc3c(CC=C(C)C)c(O)cc(O)c3c2=O)c1O |  |  | 
8 | > 40% | > 60% |  |  | CC(C)=CCc1c(O)cc2oc(-c3ccc(O)cc3)c(O)c(=O)c2c1O [LICOFLAVONOL] | 80 to 110% |  | 
9 | > 40% | > 60% |  |  | COc1ccc(C2COc3c(CC=C(C)C)c(O)cc(O)c3C2=O)c(O)c1 (stereo not given) | 80 to 110% |  | 
10 | 34.2% |  |  |  | CC(C)=CCc1cc(-c2coc3cc(O)cc(O)c3c2=O)ccc1O |  |  | 
11 | 61.7% | > 60% | 9.2 µM | 8.6 µM | CC(C)=CCc1c(O)ccc(-c2cc3ccc(O)cc3o2)c1O [2'-O-DEMETHYLBIDWILLOL B] | 80 to 110% |  | 
12 |  |  | 7.7 µM |  | CC(C)=CCc1cc(-c2coc3cc(O)c(CC=C(C)C)c(O)c3c2=O)cc(O)c1O |  |  | 
13 | > 40% | > 60% |  |  | COc1cc(O)c2c(=O)c(OC)c(-c3ccc(O)cc3)oc2c1 [KUMATAKENIN] | 80 to 110% |  | 
14 |  |  | 4.5 µM |  | COc1c(-c2ccc(O)cc2)oc2cc(O)c(CC=C(C)C)c(O)c2c1=O |  |  | 
15 | 58.4% | > 60% |  |  | O=c1c(-c2ccc(O)cc2)coc2cc(O)cc(O)c12 [GENISTEIN] | 80 to 110% |  | 
16 | > 40% | > 60% | 7.5 µM |  | CC(C)=CCc1c(O)ccc(-c2coc3cc(O)c(CC=C(C)C)c(O)c3c2=O)c1O | 80 to 110% |  | 
17 | > 40% | > 60% |  |  | CC(C)=CCc1cc([C@@H]2CC(=O)c3c(O)cc(O)cc3O2)ccc1O | 80 to 110% |  | 
18 | 20.1% | > 60% |  |  | CC(C)=CCc1c(O)ccc(-c2coc3cc(O)cc(O)c3c2=O)c1O | 80 to 110% |  | 
19 | > 40% | > 60% | 5.3 µM |  | COc1cc(O)ccc1-c1cc2c(OC)c(CC=C(C)C)c(O)cc2o1 | 80 to 110% |  | 
20 | > 40% | > 60% |  |  | COc1cc2c(c(O)c1CC=C(C)C)C(=O)C(c1ccc(O)cc1O)CO2 (stereo not given) | 80 to 110% | >80% | 
21 | > 40% | > 60% | 3.3 µM |  | COc1cc2oc(-c3ccc(O)cc3O)cc2c(OC)c1CC=C(C)C | 80 to 110% |  | 
22 | > 40% | > 60% |  |  | O=c1c(O)c(-c2ccc(O)cc2)oc2cc(O)cc(O)c12 [KAEMPFEROL] | 80 to 110% | >80% | 
23 |  |  | 5.3 µM |  | COc1cc2occ(-c3ccc(O)cc3O)c(=O)c2c(O)c1CC=C(C)C |  |  | 
24 | > 40% | > 60% |  |  | COc1ccc([C@@H]2COc3cc(O)c(CC=C(C)C)cc3C2)c(O)c1 | 80 to 110% |  | 
25 | > 40% | > 60% |  |  | CC1(C)C=Cc2cc(-c3coc4cc(O)cc(O)c4c3=O)ccc2O1 | 80 to 110% |  | 
26 |  |  |  | 3.2 µM | CC(C)=CCc1cc(-c2oc3cc(O)c(CC=C(C)C)c(O)c3c(=O)c2O)ccc1O |  |  | 
27 | > 40% | > 60% |  | 3.8 µM | COc1ccc(-c2coc3cc(O)cc(O)c3c2=O)cc1 [BIOCHANIN] | 80 to 110% |  | 
28 | > 40% | > 60% |  | 0.1 µM | COc1c(CC=C(C)C)c(O)cc2oc(=O)c(-c3ccc(O)cc3O)cc12 [GLYCYCOUMARIN] | 80 to 110% |  | 

The next lines start with the compound.

Row | SMILES | inhibition [1] | inhibition [2] | IC50 [3] | IC50 [6] | viability at 10 µM [4] | Activity [5] | Activity [7]
29 | CC(C)=CCc1c(O)ccc([C@@]2(O)COc3cc(O)c(CC=C(C)C)c(O)c3C2=O)c1O | > 40% | > 60% |  |  | 80 to 110% |  | 
30 | COc1cc(O)ccc1/C=C/C(=O)c1ccc(O)cc1 [ECHINATIN] | > 40% | > 60% |  |  | 80 to 110% |  | 
31 | CC(C)=CCc1c(O)cc2c(c1O)C(=O)[C@@](O)(c1ccc(O)c3c1OC(C)(C)C=C3)CO2 | > 40% | > 60% | 5.9 µM | 20.1 µM | 80 to 110% |  | 
32 | COc1c(CC=C(C)C)c(O)cc2c1-c1oc3cc(O)ccc3c1CO2 | > 40% | > 60% | 8.3 µM | 0.3 µM | 80 to 110% | >80% | 
33 | COc1c(CC=C(C)C)c(O)cc2c1C[C@H](c1ccc(O)c(CC=C(C)C)c1O)CO2 [LICORICIDIN] |  |  | 5.9 µM |  |  |  | 
34 | O=C(/C=C/c1ccc(O)cc1)c1ccc(O)cc1O [ISOLIQUIRITIGENIN] | > 40% | > 60% |  | 5.6 µM | 80 to 110% |  | 
35 | C[C@H]1O[C@H](O[C@H]2[C@H](O)[C@@H](O)[C@@H](O[C@H]3[C@H](O)[C@@H](O)C(O)O[C@@H]3CO)O[C@@H]2CO)[C@H](O)[C@@H](O)[C@@H]1N[C@H]1C=C(CO)[C@@H](O)[C@H](O)[C@H]1O (stereo not given in full) [ACARBOSE] |  |  |  | 166 µM |  |  | 
36 | C=C(C)[C@@H](O)Cc1c(O)ccc([C@@H]2COc3cc(OC)c(CC=C(C)C)c(OC)c3C2)c1O | > 40% | > 60% | 6.7 µM |  | 80 to 110% |  | 
37 | CC(C)=CCc1c(O)ccc(C2COc3cc(O)c(CC=C(C)C)c(O)c3C2=O)c1O (stereo not given) | > 40% | > 60% |  |  | 80 to 110% |  | 
38 | COc1cc2c(c(O)c1CC=C(C)C)C(=O)[C@H](c1ccc(O)cc1)CO2 | > 40% | > 60% |  |  | 80 to 110% | 95% | 
39 | CN(C)C(=N)NC(=N)N |  |  |  |  |  |  | Active
40 | COc1c(CC=C(C)C)c(O)cc2c1[C@@H]1Oc3cc(O)c(CC=C(C)C)cc3[C@@H]1CO2 |  |  | 4.4 µM |  |  |  | 
41 | COc1cc2c(c(OC)c1CC=C(C)C)C[C@H](c1ccc(O)cc1O)CO2 [GLYASPERIN D] | > 40% | > 60% |  |  | 80 to 110% |  | 
42 | CC1(C)C=Cc2cc(/C=C/C(=O)c3ccc(O)cc3O)ccc2O1 | > 40% | > 60% |  |  | 80 to 110% |  | 
43 | COc1cc2c(c(OC)c1CC=C(C)C)C[C@H](c1ccc(O)c3c1OC(C)(C)C=C3)CO2 |  |  | 7.2 µM |  |  |  | 
44 | COc1cc2c(c(O)c1CC=C(C)C)C(=O)C(c1ccc(O)c(CC=C(C)C)c1O)CO2 (stereo not given) | > 40% | > 60% | 4.3 µM |  | 80 to 110% |  | 
45 | COc1cc2c(c(OC)c1CC=C(C)C)C[C@H](c1ccc(O)c(CC=C(C)C)c1O)CO2 | > 40% | > 60% |  |  | 80 to 110% |  | 
46 | CC1(C)C=Cc2c(ccc([C@@H]3COc4cc(O)cc(O)c4C3=O)c2O)O1 | > 40% | > 60% |  |  | 80 to 110% |  | 
47 | COc1c(CC=C(C)C)c(O)cc2c1[C@@H]1Oc3cc4c(cc3[C@@H]1CO2)C=CC(C)(C)O4 | > 40% | > 60% | 4.8 µM |  | 80 to 110% |  | 
48 | COc1ccc([C@@H]2COc3cc(O)ccc3C2)c(O)c1 | > 40% | > 60% |  |  | 80 to 110% |  | 
49 | COc1cc2oc(=O)c3c4ccc(O)cc4oc3c2c(OC)c1CC=C(C)C | > 40% | > 60% |  |  | 80 to 110% |  | 
50 | Oc1ccc2c(c1)OC[C@@H](c1cc3c(cc1O)OCO3)C2 |  |  |  | 3.8 µM |  |  | 
